The results in this text go back to patent US6410585B1, “Inhibitors of protein tyrosine phosphatase” (priority 1997, dated 2002).

Molecules are shown by their SMILES. Values joined by “and” are separate entries in the source; they are usually repeats but may differ in a detail not shown here. Identical values can stand only once.

This experiment addresses T1, human PTP1B (Homo sapiens, UniProt P18031).
T1 construct: human PTP1B (amino acid residues 1-321); made in house; host or cells: E. coli BL21(DE3)
T1 sequence (P18031 1-321): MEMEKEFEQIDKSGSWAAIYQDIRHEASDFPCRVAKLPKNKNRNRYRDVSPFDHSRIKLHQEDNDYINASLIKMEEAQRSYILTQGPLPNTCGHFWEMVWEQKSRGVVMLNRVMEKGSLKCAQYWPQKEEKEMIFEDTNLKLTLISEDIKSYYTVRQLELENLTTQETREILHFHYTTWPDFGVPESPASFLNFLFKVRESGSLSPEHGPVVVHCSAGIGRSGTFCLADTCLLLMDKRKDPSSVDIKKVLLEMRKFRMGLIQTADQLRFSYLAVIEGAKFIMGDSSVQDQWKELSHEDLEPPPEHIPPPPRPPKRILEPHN
The experiment in a line: PTP1B assay, pNPP hydrolysis, assayed exactly as for PTP1. Format: biochemical. The following applies: for PTP1B Inhib PTP1B. % Inhib: Table 2; for inhibition at 1 µM / inhibition at 10 µM / inhibition at 100 µM: Table 2, read-out: PTP1B Inhib PTP1B. % Inhib. From the text: The equivalent construct of human PTP1B (amino acid residues 1-321) (cloned from a human placental library), without the GST tag and thrombin cleavage site, was inserted into a pMB replicon and transformed into E. coli BL21(DE3), a strain containing a chromosomal copy of the gene for T7 RNA polymerase under control of a lacUV5 promoter. Expression of PTP1B was induced with isopropyl thiogalactose and the soluble protein was purified by ion exchange, hydrophobic interaction and gel exclusion chromatography for use in the assay to identify PTP inhibitors.
PTP1 activity is measured using either p-nitrophenol phosphate (pNPP) or a triphosphopeptide (that matches residues 1142 through 1153 of the β-subunit and the insulin receptor) as substrate in a 96-well microtiter plate format. An assay pH of 7.2 is used for standard assays (measured 405=9800 at pH 7.2).
Human PTP1B, which is highly homologous to rat PTP1, was assayed exactly as described above for PTP1.
Standard assays are conducted at room temperature in a total volume of 0.2 ml that contains Hepes buffer (50 mM, pH 7.2), NaCl (50 mM), EDTA (1 mM), DTT (1 mM), bovine serum albumin (1 mg/ml), pNPP (1 mM) and PTP1 (35 ng/ml). Compounds (2 μl of 10 mM solutions) are pipetted into wells of microtiter plates followed by 198 μl of premixed reaction mix (with PTP1 and pNPP added immediately before use). The rate of change in A405 is recorded for 60 min. Two wells on each plate contain DMSO controls and two wells contain sodium orthovanadate (1 mM) which inhibits PTP1-catalyzed hydrolysis of pNPP completely. Data are expressed as percent inhibition relative to the average of the DMSO controls measured on the same microtiter plate.

On to `CCCCCNC(=O)C(Cc1ccc(OCCOO)c(COO)c1)NC(=O)C(Cc1ccccc1)NC(=O)CCC(=O)O` (centres unmarked), for which, for the setting “Conc 1 uM”, the “PTP1B Inhib PTP1B. % Inhib” value amounted to 66% and the inhibition at 1 µM amounted to 64%. Also, where the note is “Conc 10 uM”, the “PTP1B Inhib PTP1B. % Inhib” value is given as 92% and the inhibition at 10 µM worked out at 93%. Further, for the setting “Conc 100 uM”, the inhibition at 100 µM is 98%.

Regarding `CCCCCNC(=O)C(Cc1ccc(OC(COO)COO)cc1)NC(=O)C(CCc1ccccc1)NC(=O)OC(C)(C)C` (centres unmarked), the inhibition at 1 µM (Conc 1 uM) turned out to be 2%. In addition, the “PTP1B Inhib PTP1B. % Inhib” value (Conc 10 uM) is 7% and 17%. Under “Conc 100 uM”, the “PTP1B Inhib PTP1B. % Inhib” value came to 77% and the inhibition at 100 µM was determined as 58%.

Regarding `CCCCCNC(=O)[C@H](Cc1ccc(OC(F)C(=O)O)c(C(=O)O)c1)NC(=O)[C@H](Cc1ccccc1)NC(=O)OC(C)(C)C` (some centres unmarked), under “Conc 1 uM”, the inhibition at 1 µM was 34%. Moreover, the inhibition at 10 µM (Conc 10 uM) was found to be 76%. Besides, the inhibition at 100 µM (Conc 100 uM) was determined as 95%.

In the case of `CCCCCNC(=O)C(Cc1ccc(OC(COO)COO)cc1)NC(=O)C(Cc1ccccc1)NC(=O)CCNC(=O)OC(C)(C)C` (centres unmarked), under “Conc 1 uM”, the inhibition at 1 µM was found to be 14%. For the same compound, under “Conc 10 uM”, the inhibition at 10 µM turned out to be 62%. The inhibition at 100 µM (Conc 100 uM) was determined as 93%.

For `CCCCCNC(=O)C(Cc1ccc(OCCOO)c(COO)c1)NC(=O)C(Cc1ccccc1)NC(=O)Cc1ccc(C)cc1` (centres unmarked), the inhibition at 1 µM (Conc 1 uM) was 39%. For the setting “Conc 10 uM”, the inhibition at 10 µM is 85%. Also, the inhibition at 100 µM (Conc 100 uM) came out at 98%.

With `CCCCCNC(=O)C(Cc1ccc(OCCOO)c(COO)c1)NC(=O)C(Cc1ccccc1)NC(=O)CCCc1ccccc1` (centres unmarked), under “Conc 1 uM”, the inhibition at 1 µM came to 19%. For the same compound, the inhibition at 10 µM (Conc 10 uM) is 70%. Besides, the inhibition at 100 µM (Conc 100 uM) came out at 96%.

In the case of `CCCCCNC(=O)C(Cc1ccc(OCCOO)c(COO)c1)NC(=O)C(Cc1ccccc1)NC(=O)CCc1ccccc1` (centres unmarked), under “Conc 1 uM”, the inhibition at 1 µM came out at 22%. For the setting “Conc 10 uM”, the inhibition at 10 µM is 74%. Besides, where the note is “Conc 100 uM”, the inhibition at 100 µM stood at 95%.

With `CCCCCNC(=O)C(Cc1ccc(OC(COO)COO)cc1)NC(=O)C(Cc1ccccc1)NS(=O)OC` (centres unmarked), the inhibition at 1 µM (Conc 1 uM) was 9%. Also, under “Conc 10 uM”, the inhibition at 10 µM was determined as 40%. Besides, for the setting “Conc 100 uM”, the inhibition at 100 µM is 86%.

For `CCCCCNC(=O)C(Cc1ccc(OCCOO)c(COO)c1)NC(=O)C(Cc1ccccc1)NC(=O)Cc1ccc(O)cc1` (centres unmarked), the inhibition at 1 µM (Conc 1 uM) amounted to 46%. For the setting “Conc 10 uM”, the inhibition at 10 µM worked out at 88%. Where the note is “Conc 100 uM”, the inhibition at 100 µM worked out at 98%.

Take `CCCCCNC(=O)C(Cc1ccc(OC(COO)COO)cc1)NC(=O)C(Cc1ccccc1)NC(=O)CCN(CC)CC` (centres unmarked): the inhibition at 1 µM (Conc 1 uM) stood at 12%. Further, the inhibition at 10 µM (Conc 10 uM) turned out to be 54%. Also, for the setting “Conc 100 uM”, the inhibition at 100 µM is 92%.

In the case of `CCCCCNC(=O)C(Cc1ccc(OCC(=O)O)c(OCC(=O)O)c1)NC(=O)C(Cc1ccccc1)NC(=O)OC(C)(C)C` (centres unmarked), where the note is “Conc 1 uM”, the inhibition at 1 µM is 1%. For the same compound, the inhibition at 10 µM (Conc 10 uM) is 5%. In addition, under “Conc 100 uM”, the inhibition at 100 µM is 25%.

Regarding `CCCCCNC(=O)[C@H](Cc1ccc(OCC(=O)O)c(C(=O)NO)c1)NC(=O)[C@H](Cc1ccccc1)NC(=O)OC(C)(C)C`, the inhibition at 1 µM (Conc 1 uM) worked out at 5%. Moreover, the inhibition at 10 µM (Conc 10 uM) amounted to 13%. Further, the inhibition at 100 µM (Conc 100 uM) was found to be 54%.

Turning to `CCCCCNC(=O)C(Cc1ccc(OC(COO)COO)cc1)NC(=O)C(Cc1ccccc1)NC(=O)NC(C)(C)C` (centres unmarked), under “Conc 1 uM”, the inhibition at 1 µM stood at 9%. Moreover, under “Conc 10 uM”, the inhibition at 10 µM is 40%. Also, for the setting “Conc 100 uM”, the inhibition at 100 µM came out at 86%.

For `CCCCCNC(=O)C(Cc1ccc(OC(COO)COO)cc1)NC(=O)C(Cc1ccc2ccccc2c1)NC(=O)OC(C)(C)C` (centres unmarked), under “Conc 1 uM”, the “PTP1B Inhib PTP1B. % Inhib” value is 1% and 3%. Where the note is “Conc 10 uM”, the inhibition at 10 µM stood at 29%. Under “Conc 100 uM”, the “PTP1B Inhib PTP1B. % Inhib” value is given as 90% and the inhibition at 100 µM is 93%.

`CCCCCNC(=O)C(Cc1ccc(OC(COO)COO)cc1)NC(=O)N(Cc1ccccc1)C(CCc1ccccc1)CC(=O)O` (centres unmarked): the inhibition at 1 µM (Conc 1 uM) was found to be 5%. The inhibition at 10 µM (Conc 10 uM) came to 8%. Moreover, the inhibition at 100 µM (Conc 100 uM) was 42%.

Regarding `CCCCCNC(=O)C(Cc1ccc(OC(COO)COO)cc1)NC(=O)C(Cc1ccc(O)cc1)NC(=O)OC(C)(C)C` (centres unmarked), the inhibition at 1 µM (Conc 1 uM) is 10%. The inhibition at 10 µM (Conc 10 uM) came to 50%. Also, the inhibition at 100 µM (Conc 100 uM) turned out to be 90%.

For the compound `CCCCCNC(=O)C(Cc1ccc(OC(COO)COO)cc1)NC(=O)N1CCN(C(=O)OC(C)(C)C)CC1` (centres unmarked), the inhibition at 1 µM (Conc 1 uM) stood at 19%. For the setting “Conc 10 uM”, the “PTP1B Inhib PTP1B. % Inhib” value is recorded as 63% and the inhibition at 10 µM was determined as 68%. For the same compound, under “Conc 100 uM”, the “PTP1B Inhib PTP1B. % Inhib” value amounted to 92% and the inhibition at 100 µM is 95%.

Regarding `CCCCCNC(=O)C(Cc1ccc(OC(COO)COO)cc1)NC(=O)C(CCCCNC(=O)OCc1ccccc1)NC(=O)OC(C)(C)C` (centres unmarked), the inhibition at 1 µM (Conc 1 uM) came to 6%. Under “Conc 10 uM”, the inhibition at 10 µM stood at 28%. Also, the inhibition at 100 µM (Conc 100 uM) was found to be 79%.

`CCCCCNC(=O)C(Cc1ccc(OCCOO)c(COO)c1)NC(=O)C(Cc1ccccc1)NC(=O)OC(C)(C)C` (centres unmarked) [drawing 189]: the “PTP1B Inhib PTP1B. % Inhib” value (Conc 1 uM) was 2%, the “PTP1B Inhib PTP1B. % Inhib” value (Conc 10 uM) was 19% and the “PTP1B Inhib PTP1B. % Inhib” value (Conc 100 uM) is reported as 69%.

Consider `CCCCCNC(=O)C(Cc1ccc(OC(COO)C(=O)O)cc1)C(=O)NCCC(=O)O` (centres unmarked), for which the inhibition at 1 µM (Conc 1 uM) came to 9%. For the setting “Conc 10 uM”, the inhibition at 10 µM was 15%. The inhibition at 100 µM (Conc 100 uM) was determined as 48%.

As for `CCCCCNC(=O)[C@H](Cc1ccc(OCC(=O)O)c(-c2nn[nH]n2)c1)NC(=O)[C@H](Cc1ccccc1)NC(=O)OC(C)(C)C`, where the note is “Conc 100 uM”, the “PTP1B Inhib PTP1B. % Inhib” value turned out to be 97% and the inhibition at 100 µM was 87%.

`CC(C)(C)OC(=O)N[C@@H](Cc1ccccc1)C(=O)N[C@H](CO)Cc1ccc(OCC(=O)O)c(C(=O)O)c1` [drawing 222]: the inhibition at 1 µM (Conc 1 uM) is 5%. Besides, where the note is “Conc 10 uM”, the inhibition at 10 µM was 31%. The inhibition at 100 µM (Conc 100 uM) came out at 80%.

Turning to `CCCCCNC(=O)C(Cc1ccc(OC(COO)COO)cc1)NC(=O)C(CC(N)=O)NC(=O)OC(C)(C)C` (centres unmarked), where the note is “Conc 1 uM”, the inhibition at 1 µM came to 9%. Besides, the inhibition at 10 µM (Conc 10 uM) worked out at 40%. Besides, under “Conc 100 uM”, the inhibition at 100 µM worked out at 85%.

Take `CCCCCNC(=O)C(Cc1ccc(OC(C(=O)O)C(=O)O)cc1)NC(=O)[C@H](Cc1c[nH]c2ccccc12)NC(=O)OC(C)(C)C` (some centres unmarked): the inhibition at 1 µM (Conc 1 uM) worked out at 10%. In addition, the inhibition at 10 µM (Conc 10 uM) is 44%. Under “Conc 100 uM”, the inhibition at 100 µM was found to be 89%.

Take `CCCCCNC(=O)C(Cc1ccc(OC(COO)COO)cc1)NC(=O)C(Cc1c(F)c(F)c(F)c(F)c1F)NC(=O)OC(C)(C)C` (centres unmarked): the inhibition at 1 µM (Conc 1 uM) is 5%. For the same compound, the inhibition at 10 µM (Conc 10 uM) amounted to 25%. In addition, where the note is “Conc 100 uM”, the inhibition at 100 µM came out at 80%.

Take `CCCCCNC(=O)C(Cc1ccc(OCCOO)c(COO)c1)NC(=O)C(Cc1ccccc1)NC(=O)CCOC` (centres unmarked): the inhibition at 1 µM (Conc 1 uM) was 37%. Also, the inhibition at 10 µM (Conc 10 uM) was 83%. Further, the inhibition at 100 µM (Conc 100 uM) is 97%.

Turning to `CCCCCNC(=O)C(Cc1ccc(OC(COO)COO)cc1)NC(=O)C(Cc1cccc2ccccc12)NC(=O)OC(C)(C)C` (centres unmarked), under “Conc 1 uM”, the inhibition at 1 µM amounted to 3%. Also, the inhibition at 10 µM (Conc 10 uM) came out at 33%. In addition, for the setting “Conc 100 uM”, the inhibition at 100 µM turned out to be 86%.

As to `CCCCCNC(=O)C(Cc1ccc(OC(COO)COO)cc1)NC(=O)C(CC(C)C)NC(=O)OC(C)(C)C` (centres unmarked), under “Conc 1 uM”, the inhibition at 1 µM came to 4%. In addition, the inhibition at 10 µM (Conc 10 uM) turned out to be 24%. Further, under “Conc 100 uM”, the inhibition at 100 µM was found to be 76%.

As to `CCCCCNC(=O)C(Cc1ccc(OCCOO)c(COO)c1)NC(=O)C(Cc1ccccc1)NC(C)=O` (centres unmarked), the inhibition at 1 µM (Conc 1 uM) was 28%. Also, the inhibition at 10 µM (Conc 10 uM) was found to be 77%. Besides, the inhibition at 100 µM (Conc 100 uM) worked out at 96%.
